We go through one molecule from US20130273181A1, “METHODS AND COMPOSITIONS FOR DIAGNOSING AND TREATING MUSCLE MYOPATHY DISORDERS” (The Regents of the University of Colorado, a body Corporate, priority 2012, published 2013).

What all share (assay): Calcium transient measurements (Fluo-3) in cultured myotubes in response to RyR1 agonist
In assay [1] the target is T1, RyR1 (Mus musculus, UniProt E9PZQ0).
T1 construct: produced substantial Ca^2+ release in both normal and Ryr1^m1Nisw/m1Nisw myotubes; endogenous in cells; host or cells: cultured myotubes from locomotor-normal mouse embryos
T1 sequence (E9PZQ0 whole entry): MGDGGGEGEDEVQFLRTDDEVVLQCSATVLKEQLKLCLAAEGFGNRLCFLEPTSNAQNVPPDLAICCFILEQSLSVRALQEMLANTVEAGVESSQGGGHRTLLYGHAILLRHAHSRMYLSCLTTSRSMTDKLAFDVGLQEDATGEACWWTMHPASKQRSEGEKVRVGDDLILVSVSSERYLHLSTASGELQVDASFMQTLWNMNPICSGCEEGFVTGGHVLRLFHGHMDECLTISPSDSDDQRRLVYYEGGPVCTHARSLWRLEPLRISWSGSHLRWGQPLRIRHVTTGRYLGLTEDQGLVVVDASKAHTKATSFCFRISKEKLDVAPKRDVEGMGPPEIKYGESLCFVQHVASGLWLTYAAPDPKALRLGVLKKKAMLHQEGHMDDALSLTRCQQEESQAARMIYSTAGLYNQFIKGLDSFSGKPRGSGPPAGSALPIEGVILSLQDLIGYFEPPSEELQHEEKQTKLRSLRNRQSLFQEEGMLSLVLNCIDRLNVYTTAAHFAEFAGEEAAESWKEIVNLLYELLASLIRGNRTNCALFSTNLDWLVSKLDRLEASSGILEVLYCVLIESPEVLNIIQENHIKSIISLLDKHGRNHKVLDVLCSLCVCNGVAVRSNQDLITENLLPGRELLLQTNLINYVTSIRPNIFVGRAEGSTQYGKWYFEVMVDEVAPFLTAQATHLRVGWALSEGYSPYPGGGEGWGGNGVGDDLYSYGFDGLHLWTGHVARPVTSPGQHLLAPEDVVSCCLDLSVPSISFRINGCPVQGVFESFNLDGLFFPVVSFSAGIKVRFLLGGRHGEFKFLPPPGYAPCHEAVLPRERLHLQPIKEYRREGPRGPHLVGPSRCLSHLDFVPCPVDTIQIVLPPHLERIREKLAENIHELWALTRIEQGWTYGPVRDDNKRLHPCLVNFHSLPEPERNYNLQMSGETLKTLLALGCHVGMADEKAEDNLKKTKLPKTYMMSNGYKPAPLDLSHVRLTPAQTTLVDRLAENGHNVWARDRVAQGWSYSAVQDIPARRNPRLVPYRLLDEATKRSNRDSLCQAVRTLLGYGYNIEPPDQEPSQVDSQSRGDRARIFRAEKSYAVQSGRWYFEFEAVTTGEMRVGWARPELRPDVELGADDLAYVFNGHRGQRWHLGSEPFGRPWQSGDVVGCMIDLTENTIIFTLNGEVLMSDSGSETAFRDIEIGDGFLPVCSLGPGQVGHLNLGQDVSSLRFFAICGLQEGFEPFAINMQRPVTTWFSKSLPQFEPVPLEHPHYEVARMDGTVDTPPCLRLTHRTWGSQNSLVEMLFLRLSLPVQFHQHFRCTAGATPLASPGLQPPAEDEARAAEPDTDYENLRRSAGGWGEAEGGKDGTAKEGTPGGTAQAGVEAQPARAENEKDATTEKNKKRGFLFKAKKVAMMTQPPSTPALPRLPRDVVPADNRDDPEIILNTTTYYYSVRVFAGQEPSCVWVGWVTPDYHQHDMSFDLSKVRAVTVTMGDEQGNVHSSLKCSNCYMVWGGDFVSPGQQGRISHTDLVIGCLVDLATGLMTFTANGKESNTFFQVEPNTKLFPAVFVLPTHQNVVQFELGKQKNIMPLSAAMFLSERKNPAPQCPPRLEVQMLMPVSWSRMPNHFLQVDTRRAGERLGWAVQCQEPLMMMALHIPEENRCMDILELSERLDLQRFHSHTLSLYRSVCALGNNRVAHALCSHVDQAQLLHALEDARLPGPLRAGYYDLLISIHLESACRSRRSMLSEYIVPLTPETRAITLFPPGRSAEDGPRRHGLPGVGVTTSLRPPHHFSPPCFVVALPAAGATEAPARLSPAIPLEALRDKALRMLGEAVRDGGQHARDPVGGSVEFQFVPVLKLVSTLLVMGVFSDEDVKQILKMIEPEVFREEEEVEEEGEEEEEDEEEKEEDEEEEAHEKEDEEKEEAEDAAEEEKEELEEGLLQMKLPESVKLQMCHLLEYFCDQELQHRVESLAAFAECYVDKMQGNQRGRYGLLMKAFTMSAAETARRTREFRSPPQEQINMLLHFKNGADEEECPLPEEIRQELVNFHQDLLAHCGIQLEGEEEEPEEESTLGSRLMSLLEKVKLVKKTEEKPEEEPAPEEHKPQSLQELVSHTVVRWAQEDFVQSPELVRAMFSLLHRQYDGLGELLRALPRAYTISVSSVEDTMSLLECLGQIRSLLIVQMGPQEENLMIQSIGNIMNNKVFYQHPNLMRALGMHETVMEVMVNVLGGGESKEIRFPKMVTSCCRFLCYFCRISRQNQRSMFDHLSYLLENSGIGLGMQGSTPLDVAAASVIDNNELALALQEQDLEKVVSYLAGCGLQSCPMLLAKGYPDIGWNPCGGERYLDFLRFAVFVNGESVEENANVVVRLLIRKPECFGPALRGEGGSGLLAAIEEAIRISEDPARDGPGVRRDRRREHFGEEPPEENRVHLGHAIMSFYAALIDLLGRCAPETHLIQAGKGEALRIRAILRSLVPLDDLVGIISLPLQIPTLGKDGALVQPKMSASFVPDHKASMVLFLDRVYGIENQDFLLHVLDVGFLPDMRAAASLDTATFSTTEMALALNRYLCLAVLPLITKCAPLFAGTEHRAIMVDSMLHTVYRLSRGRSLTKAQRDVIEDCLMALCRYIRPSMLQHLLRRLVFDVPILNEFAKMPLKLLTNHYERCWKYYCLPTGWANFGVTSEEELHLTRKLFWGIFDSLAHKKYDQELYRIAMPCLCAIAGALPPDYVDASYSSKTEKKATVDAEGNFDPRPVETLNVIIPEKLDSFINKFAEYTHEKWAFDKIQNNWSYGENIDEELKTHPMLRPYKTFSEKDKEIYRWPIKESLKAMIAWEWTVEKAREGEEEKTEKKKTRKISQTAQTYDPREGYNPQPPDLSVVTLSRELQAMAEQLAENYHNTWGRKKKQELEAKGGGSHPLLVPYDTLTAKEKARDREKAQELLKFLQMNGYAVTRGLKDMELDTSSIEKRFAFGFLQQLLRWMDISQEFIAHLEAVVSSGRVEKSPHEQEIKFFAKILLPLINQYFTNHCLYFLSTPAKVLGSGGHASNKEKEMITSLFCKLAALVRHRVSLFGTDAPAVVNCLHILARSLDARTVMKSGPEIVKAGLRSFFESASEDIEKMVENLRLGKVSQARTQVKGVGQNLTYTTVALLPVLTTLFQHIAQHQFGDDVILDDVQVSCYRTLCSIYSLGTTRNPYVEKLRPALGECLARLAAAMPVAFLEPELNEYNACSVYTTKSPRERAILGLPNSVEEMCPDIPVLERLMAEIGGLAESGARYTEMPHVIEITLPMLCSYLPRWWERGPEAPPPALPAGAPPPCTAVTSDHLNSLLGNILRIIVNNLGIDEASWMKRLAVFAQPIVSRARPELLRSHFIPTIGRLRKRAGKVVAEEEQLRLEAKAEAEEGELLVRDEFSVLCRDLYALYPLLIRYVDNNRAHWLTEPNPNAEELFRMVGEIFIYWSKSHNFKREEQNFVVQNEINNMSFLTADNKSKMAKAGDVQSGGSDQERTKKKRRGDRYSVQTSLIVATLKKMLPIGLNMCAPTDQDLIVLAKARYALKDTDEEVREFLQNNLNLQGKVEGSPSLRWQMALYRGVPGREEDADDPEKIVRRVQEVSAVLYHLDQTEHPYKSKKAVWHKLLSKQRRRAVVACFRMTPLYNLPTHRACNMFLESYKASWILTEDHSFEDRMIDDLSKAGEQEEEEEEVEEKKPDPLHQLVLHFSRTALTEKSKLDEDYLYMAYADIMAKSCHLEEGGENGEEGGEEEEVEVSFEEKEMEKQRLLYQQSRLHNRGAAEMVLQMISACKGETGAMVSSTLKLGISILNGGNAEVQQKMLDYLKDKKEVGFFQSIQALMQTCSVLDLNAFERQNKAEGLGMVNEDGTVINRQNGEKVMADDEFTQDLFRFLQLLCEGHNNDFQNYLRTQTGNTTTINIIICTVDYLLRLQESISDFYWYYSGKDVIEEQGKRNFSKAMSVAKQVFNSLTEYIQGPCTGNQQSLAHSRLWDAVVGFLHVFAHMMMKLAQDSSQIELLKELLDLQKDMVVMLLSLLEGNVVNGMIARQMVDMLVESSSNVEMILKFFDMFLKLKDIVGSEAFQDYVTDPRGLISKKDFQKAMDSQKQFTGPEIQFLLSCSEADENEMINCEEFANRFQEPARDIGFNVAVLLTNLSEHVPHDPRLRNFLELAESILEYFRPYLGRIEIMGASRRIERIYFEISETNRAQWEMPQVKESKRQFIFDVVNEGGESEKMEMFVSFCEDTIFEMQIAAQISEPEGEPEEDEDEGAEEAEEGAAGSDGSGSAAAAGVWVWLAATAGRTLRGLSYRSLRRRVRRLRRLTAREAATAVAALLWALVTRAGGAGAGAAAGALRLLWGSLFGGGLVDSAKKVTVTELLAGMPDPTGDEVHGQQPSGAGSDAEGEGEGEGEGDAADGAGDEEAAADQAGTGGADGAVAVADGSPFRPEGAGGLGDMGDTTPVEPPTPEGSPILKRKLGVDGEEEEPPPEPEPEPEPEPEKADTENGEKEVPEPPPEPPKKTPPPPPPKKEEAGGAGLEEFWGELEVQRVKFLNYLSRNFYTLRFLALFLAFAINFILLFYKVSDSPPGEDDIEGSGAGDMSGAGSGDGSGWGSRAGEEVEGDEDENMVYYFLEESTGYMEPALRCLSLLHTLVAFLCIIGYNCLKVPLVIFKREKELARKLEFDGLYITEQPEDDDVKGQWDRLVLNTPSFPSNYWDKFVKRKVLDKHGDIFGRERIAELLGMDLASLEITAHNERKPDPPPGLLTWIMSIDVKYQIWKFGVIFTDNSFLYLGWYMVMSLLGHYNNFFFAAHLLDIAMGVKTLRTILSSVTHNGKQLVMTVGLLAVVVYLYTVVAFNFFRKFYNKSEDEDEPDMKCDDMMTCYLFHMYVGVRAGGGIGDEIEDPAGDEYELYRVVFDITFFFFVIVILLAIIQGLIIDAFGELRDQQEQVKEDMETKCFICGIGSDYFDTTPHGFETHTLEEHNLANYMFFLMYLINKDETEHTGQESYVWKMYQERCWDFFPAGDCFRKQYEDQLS
It is filed as cell-based. The following applies: 4-CmC 0.5 mM, normal myotubes. From the text: (§1) RyR1 functions as a muscle isotype of ryanodine receptors that is mechanically activated by Dihydropyridine receptor (hereinafter “DHPR”) to release Ca^2+ from the sarcoplasmic reticulum (hereinafter SR), thus evoking excitation-contraction coupling (hereinafter E-C coupling). In some exemplary methods, whole-cell clamping in combination with a fluorescent Ca^2+ indicator, such as Fluo-3 AM, was used to study the E-C coupling function of RyR1^m1Nisw mutant protein in cultured myotubes. […] Addition of the RyR1 agonist, 4-chloro-m-cresol (4-CmC; 0.5 mM), produced substantial Ca^2+ release in both normal and Ryr1^m1Nisw/m1Nisw myotubes (peak ΔF/F of 1.4±0.1; n=5 vs. 1.2±0.1; n=3, respectively; p>0.05; FIG. 2d, e), compared to Ryr1^tm1Alle/tm1Alle null myotubes (ΔF/F 0.1±0.0; n=6; FIG. 2e). […] However, the rate of SR Ca^2+ release in response to 4-CmC was much slower in Ryr1^m1Nisw/m1Nisw versus normal myotubes (t1/2act=6.5±2.4 vs. 2.2±0.6 s, respectively; p<0.01; FIG. 2d). […] Under controlled physiological conditions, RyR1^m1Nisw/m1Nisw protein may be non-functional compared to wild type RyR1 in skeletal muscle.
(§2) FIG. 2a provides representative recordings of myoplasmic Ca^2+ transients elicited by 50-ms depolarizations from −50 mV to the indicated test potentials for locomotor normal myotubes (left; L. Normal) and Ryr1^m1Nisw/m1Nisw myotubes (right). […] FIG. 2c represents an exemplary histogram illustrating fractions of myotubes that contracted in response to a 100 V, 10 ms electrical stimulus for normal myotubes (black bar), Ryr1^m1Nisw/m1Nisw myotubes, and Ryr1^m1Nisw/m1Nisw myotubes transfected with YFP-tagged wild type RyR1 (RyR1-YFP, grey bar). The total number of myotubes tested is indicated above each bar. The defect of contraction observed in Ryr1^m1Nisw/m1Nisw myotubes (0%) was restored to 50-60% by expression of RyR1-YFP compared to the normal myotubes (90%). […] FIG. 2e represents an exemplary histogram of half-rise time of Ca^2+ transients in response to 4-CmC observed in normal (blackzbar), Ryr1^m1Nisw/m1Nisw (grey bar) and RyR1^tm1Alle/tm1Alle (white bar) myotubes. Error bars represent±SEM. An asterisk indicates a significant difference (p=0.006; t-test). The total number of myotubes tested is indicated above each bar.
(§3) Intracellular Ca^2+ was recorded with Fluo-3 (Invitrogen) at a final concentration of 200 μM that was injected by whole cell configuration, a waiting period of >5 min was used to allow the dye to diffuse into the cell interior. The total change in fluorescence (ΔF/F) was determined from the change in peak fluorescence from initial baseline during stimulation and F was the fluorescence immediately before the test pulse minus the measured average background (non Fluo-3) fluorescence before dye entry. For normal myotubes, average values of fluorescence change (ΔF) for each test potential (V) were fitted according to: (ΔF)=(ΔF)max/{1+exp[(VF−V)/kF]}, where (ΔF)max=1093 au, VF=−1.4 mV and kF=5.5 mV. Fluorescence emission was measured by fluorometer. Ryr1 cDNA was provided by Kurt Beam and Roger Bannister assisted in these experiments.

Assay [2] deals with T2, RyR1 (Mus musculus, UniProt E9PZQ0, E4242G).
T2 construct: produced substantial Ca^2+ release in both normal and Ryr1^m1Nisw/m1Nisw myotubes; endogenous in cells; host or cells: cultured myotubes from locomotor-normal mouse embryos
T2 sequence (E9PZQ0 whole entry E4242G): as the sequence (E9PZQ0 whole entry) above, with E4242G counted along it
It is filed as cell-based. The following applies: 4-CmC 0.5 mM, Ryr1^m1Nisw/m1Nisw myotubes.
Text: as §1, §2, §3

Assay [3] has as its system RyR1. Type of assay: cell-based, mouse. The following applies: 4-CmC; Ryr1^tm1Alle/tm1Alle null myotubes; n=6.
Text: as §1, §2, §3

`Cc1cc(O)ccc1Cl` [4-CmC, 4-chloro-m-cresol]: the “t1/2act (rate of SR Ca^2+ release)” value at RyR1 [1] worked out at 2.2 ± 0.6 s; at RyR1 [2], 6.5 ± 2.4 s. Further, the “peak ΔF/F (Ca^2+ release)” value was 1.4±0.1 at RyR1 [1] (n=5) and 1.2±0.1 on RyR1 [2] (n=3). Besides, in the assay on RyR1 [3], the “ΔF/F (Ca^2+ release)” value was determined as 0.1±0.0.
